Ends that are not written are not given here.
What was measured:
Format in all cases: cell-based
[1] = test system: Enterococcus faecium clinical isolate 1,040
Method: (§1) For the clinical isolates, we used 20 different isolates from the Public Health Reference Laboratory collection of the Secretaría de Salud del Distrito (SdSD; Bogotá, Colombia). The samples were collected from June to December 2016. For each isolate, the patient parameters (age, gender and location) and the culture site were recorded for epidemiologic monitoring (Table 1). All isolates had been previously tested for antibiotic sensitivity at the Public Health Microbiology Laboratory using either the Phoenix™ system (Gram-positive) or the VITEK 2 system (Gram-negative).
(§2) We screened all five peptides against the ATCC reference strains and the clinical isolates according to Method M7-A7 of the National Committee for Clinical Laboratory Standards (CLSI, [2007]). The MIC50 and MBC values were determined using a broth microdilution and growth inhibition method previously reported by Leon-Calvijo et al. ([2015]), with some modifications (Wiegand et al., [2008]). Briefly, the MIC50 experiments comprised a liquid-inhibition growth assay in a sterile, untreated, 96-well flat-bottom tissue culture plate. The bacteria were cultured overnight n Mueller Hinton agar; three colonies were transferred to 8 mL of Mueller Hilton broth and incubated at 37°C until the mid-exponential phase of growth. The turbidity of the cultures was measured and adjusted spectrophotometrically to a McFarland standard of 0.5, and then diluted to a final concentration of 5 × 10^7 colony forming units (CFU) per well. Stock solutions (2,000 μM) of each test peptide were serially diluted to final concentrations (per well) of 200, 100, 50, 25, 12.5, and 6.25 μM. Each concentration was evaluated in duplicate and each assay was performed in triplicate.
(§3) Wells containing Mueller Hilton broth with bacterial inoculum only served as bacterial-growth controls. Additional controls included Mueller Hilton broth alone (as blank) and Mueller Hilton broth with ciprofloxacin (2 μg/mL; as positive control). The microplate was incubated for 24 h at 37°C, and growth inhibition was measured by monitoring the optical density at 620 nm (OD620). The MIC50 was defined as the peptide concentration at which bacterial growth was inhibited by 50%.
(§4) To determine the MBC, an aliquot from each well of the MIC50 assay was spread onto Mueller Hilton agar. After 18 h at 37°C, the concentration that inhibited bacterial growth was determined. Each of these tests was performed four times. MBC was defined as the lowest concentration of peptide at which the number of bacteria was reduced by 99.9% in vitro (European Committee for Antimicrobial Susceptibility Testing, [2000]).

[2] = test system: Enterococcus faecium clinical isolate 1,225
Method: as §1, §2, §3, §4

[3] = test system: Enterococcus faecium clinical isolate 1,461
Method: as §1, §2, §3, §4

[4] = test system: Enterococcus faecium clinical isolate 550
Method: as §1, §2, §3, §4

[5] = test system: Klebsiella pneumoniae clinical isolate 50,181
Method: as §1, §2, §3, §4

[6] = test system: Klebsiella pneumoniae clinical isolate 50,424
Method: as §1, §2, §3, §4

[7] = test system: Klebsiella pneumoniae clinical isolate 51,009
Method: as §1, §2, §3, §4

[8] = test system: Klebsiella pneumoniae clinical isolate 51,048
Method: as §1, §2, §3, §4

[9] = test system: Pseudomonas aeruginosa clinical isolate 47,661
Method: as §1, §2, §3, §4

[10] = test system: Pseudomonas aeruginosa clinical isolate 48,220
Method: as §1, §2, §3, §4

[11] = test system: Pseudomonas aeruginosa clinical isolate 48,221
Method: as §1, §2, §3, §4

[12] = test system: Pseudomonas aeruginosa clinical isolate 48,458
Method: as §1, §2, §3, §4

[13] = test system: Pseudomonas aeruginosa clinical isolate 48,526
Method: as §1, §2, §3, §4

[14] = test system: Staphylococcus aureus clinical isolate 43,062
Method: as §1, §2, §3, §4

[15] = test system: Staphylococcus aureus clinical isolate 43,337
Method: as §1, §2, §3, §4

[16] = test system: Staphylococcus aureus clinical isolate 52,013
Method: as §1, §2, §3, §4

RWQWRWQWR [PLS]
50.0 µM: MBC ([15]; clinical isolate 43,337, 18 h)
13.0 µM: MIC50 ([15]; clinical isolate 43,337, 24 h)
5.6 µM: MIC50 ([6]; clinical isolate 50,424, 24 h)
50.4 µM: MIC50 ([14]; clinical isolate 43,062, 24 h)
100.0 µM: MBC ([2]; clinical isolate 1,225, 18 h) | MBC ([3]; clinical isolate 1,461, 18 h) | MBC ([4]; clinical isolate 550, 18 h) | MBC ([7]; clinical isolate 51,009, 18 h) | MBC ([13]; clinical isolate 48,526, 18 h) | MBC ([14]; clinical isolate 43,062, 18 h) | MBC ([16]; clinical isolate 52,013, 18 h)
11.7 µM: MIC50 ([8]; clinical isolate 51,048, 24 h)
25.6 µM: MIC50 ([7]; clinical isolate 51,009, 24 h)
8.3 µM: MIC50 ([16]; clinical isolate 52,013, 24 h)
>100 µM: MBC ([1]; clinical isolate 1,040, 18 h) | MIC50 ([1]; clinical isolate 1,040, 24 h) | MIC50 ([2]; clinical isolate 1,225, 24 h) | MIC50 ([3]; clinical isolate 1,461, 24 h) | MIC50 ([4]; clinical isolate 550, 24 h) | MBC ([5]; clinical isolate 50,181, 18 h) | MIC50 ([5]; clinical isolate 50,181, 24 h) | MBC ([6]; clinical isolate 50,424, 18 h) | MBC ([8]; clinical isolate 51,048, 18 h) | MBC ([9]; clinical isolate 47,661, 18 h) | MBC ([10]; clinical isolate 48,220, 18 h) | MIC50 ([10]; clinical isolate 48,220, 24 h) | MBC ([11]; clinical isolate 48,221, 18 h) | MIC50 ([11]; clinical isolate 48,221, 24 h) | MBC ([12]; clinical isolate 48,458, 18 h) | MIC50 ([12]; clinical isolate 48,458, 24 h) | MIC50 ([13]; clinical isolate 48,526, 24 h)
75.0 µM: MIC50 ([9]; clinical isolate 47,661, 24 h)

— publication PMC5840262, “Design, Synthesis and Evaluation of Branched RRWQWR-Based Peptides as Antibacterial Agents Against Clinically Relevant Gram-Positive and Gram-Negative Pathogens” (Frontiers in Microbiology, 2018)
